Laboratory results taken from PubChem BioAssay AID1963423 (Molecular Pharmacology Branch, DTP, NCI, 2024).
Several values for one entry are separate records, joined by “and”; a condition that tells them apart may be missing. Identical values can stand only once.

Tested on: 439559-082-T-J2-PDC complex spheroid growth
Assay: Anticancer human tumor 439559-082-T-J2-PDC patient-derived colon adenocarcinoma cell line growth inhibition [Asc]
Conditions: for viability, T/C: stronger effect = lower value
Method: Multicellular complex tumor spheroid response to apoptosis pathway targeting inhibitors Alrizomadlin, Pelcitoclax, and Dasminapant in combination with a variety of drugs and investigational agents in selected tumor cell lines
The MDM2 inhibitor alrizomadlin, the Bcl-2/Bcl-xL inhibitor pelcitoclax, and the IAPs inhibitor dasminapant were evaluated both individually and in combination with standard of care and investigational anticancer small molecules within a complex spheroid model of solid tumors. . Complex spheroids include a stromal component modeled by human endothelial cells (HUVEC) and fibroblasts modeled by human mesenchymal stem cells (MSCs). The concentration ranges selected for each drug and investigational agent were based upon clinically achievable concentrations if the clinical Cmax of the agent was known.
Compounds. The drugs and investigational agents: alrizomadlin (APG-115; NSC831270), pelcitoclax (APG-1252; NSC835773), dasminapant (APG-1387;NSC834197), TAK-243 (NSC785004), copanlisib (NSC809693), olaparib (NSC753686), talazoparib (NSC767125), cobimetinib (NSC 768068), eltanexor (KPT-8602, NSC 794443), abemaciclib (NSC 768073), sotorasib (NSC818433), adagrasib (NSC 831453), MRTX-1133 (NSC 836407), Iadademestat (ORY1001, NSC 806812), and RMC-4630 (NSC839698), were obtained from the NCI Developmental Therapeutics Program Chemical Repository. The FDA-approved anticancer drug set is available from the Developmental Therapeutics Program at https://dtp.cancer.gov/organization/dscb/obtaining/available plates.htm. […] The stock solutions were prepared in dimethyl sulfoxide (DMSO, Sigma-Aldrich, St. Louis, MO, cat. D2650) at 800-fold the tested concentration and stored at -70 degrees C prior to their use. All drugs and investigational agents were tested over a range starting from a high concentration at or near the clinical Cmax and decreasing in half-log increments. If the clinical Cmax for an agent had not been determined, the highest concentration tested was 10 microM.
The patient-derived cancer (PDC) cell lines include five colon adenocarcinomas: 186277-243-T-J2-PDC, 616215-338-R-J1-PDC, 439559-082-T-J2-PDC, 463943-066-T-J2-PDC, and 519858-162-T-J1-PDC; three pancreatic carcinomas: 323965-272-R-J2-PDC, 521955-158-R6-J3-PDC, and 521955-158-R2-J5-PDC; two uterine sarcomas: 327498-152-R-J2-PDC and 993429-296-R-J1-PDC; two rhabdomyosarcomas: 755483-174-R-J1-PDC and 772245-204-R-J1-PDC; two soft tissue sarcomas: 126254-015-R-J1-PDC and 494315-158-R-J1-PDC; two malignant fibrous histiocytomas: 317291-083-R-J1-PDC and 596521-263-R-J1-PDC; two breast carcinomas: 171881-019-R-J1-PDC and 885512-296-R-J2-PDC; and one ovarian carcinoma: 6556581-035-R-J-PDC were obtained from the NCI PDMR, (https://pdmr.cancer.gov). The established cell lines HSSY-2 synovial sarcoma (RRID:CVCL 8719), SYO-1 synovial sarcoma (RRID:CVCL_7146), MPNST malignant peripheral neural sheath tumor were obtained from the Sloan Kettering Institute. The following established cell lines were purchased from the American Type Culture Collection (ATCC, Manassas, VA), Sor the received from the NCI repository:, PANC-1 pancreatic carcinoma (CRL-1469, RRID:CVCL_0480), OVCAR-5 ovarian carcinoma (RRID:CVCL_1628), OVCAR-8 ovarian carcinoma (RRID:CVCL_1629), , MCF-7 breast carcinoma (CRL-12584, RRID:CVCL_0031), MDA-MB-231 breast carcinoma (CRL-12532, RRID:CVCL_0062), NCI-H1876 small cell lung carcinoma (CRL-5902, RRID:CVCL_1503), NCI-H510A small cell lung carcinoma (HTB-184, RRID:CVCL_1565), NCI-H1417 (CRL-5869, RRID:CVCL_1469), and NCI-H196 small cell lung carcinoma (CRL-5823, RRID:CVCL_1509). Dr. Peter Houghton (Greehey Children's Cancer Research Institute, University of Texas Health Science Center, San Antonio, TX) provided Rh-18 rhabdomyosarcoma (RRID:CVCL_1659). Pooled donor human umbilical vein endothelial cells (HUVEC, Lonza, cat. CC-2519) and human mesenchymal stem cells (hMSC, Lonza, cat. PT-2501) were purchased from Lonza (Walkersville, MD).
Cell Culture. […]
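Note: spheroids exposed to agents for 7 days starting day 3 after seeding.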
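Throughout, for viability, T/C: percent of DMSO vehicle control viability with 100% = vehicle.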

With `NC1CCC(NC2CC2c2ccccc2)CC1` (centres undefined) + CCN1C(C(=O)NC23CCC(C(=O)O)(CC2)CC3)C(c2cccc(Cl)c2F)C2(C(=O)Nc3cc(Cl)ccc32)C12CCCCC2 the IC50 (curve of first compound, second compound 0.03 µM) was over 0.1 µM, the IC50 (curve of first compound, second compound 0.0949 µM) was over 0.1 µM and the IC50 (curve of first compound, second compound 0.3 µM) was over 0.1 µM. The IC50 (curve of first compound, second compound 0.949 µM) was over 0.1 µM, the IC50 (curve of first compound, second compound 3 µM) was over 0.1 µM and the viability, T/C (second compound 0.03 µM, first compound 0.000316 µM) was 95.4%. For the same molecule, the viability, T/C (second compound 0.03 µM, first compound 0.001 µM) was 107%, the viability, T/C (second compound 0.03 µM, first compound 0.00316 µM) was 119% and the viability, T/C (second compound 0.03 µM, first compound 0.01 µM) was 95.5%. The viability, T/C (second compound 0.03 µM, first compound 0.0316 µM) was 102%, the viability, T/C (second compound 0.03 µM, first compound 0.1 µM) was 99.7% and the viability, T/C (second compound 0.0949 µM, first compound 0.000316 µM) was 105%. It also gave a viability, T/C (second compound 0.0949 µM, first compound 0.001 µM) of 111%, a viability, T/C (second compound 0.0949 µM, first compound 0.00316 µM) of 123% and a viability, T/C (second compound 0.0949 µM, first compound 0.01 µM) of 100%. For the same molecule, the viability, T/C (second compound 0.0949 µM, first compound 0.0316 µM) was 98.8%, the viability, T/C (second compound 0.0949 µM, first compound 0.1 µM) was 107% and the viability, T/C (second compound 0.3 µM, first compound 0.000316 µM) was 97.6%. For the same molecule, the viability, T/C (second compound 0.3 µM, first compound 0.001 µM) was 111%, the viability, T/C (second compound 0.3 µM, first compound 0.00316 µM) was 110% and the viability, T/C (second compound 0.3 µM, first compound 0.01 µM) was 98.4%. It also gave a viability, T/C (second compound 0.3 µM, first compound 0.0316 µM) of 110%, a viability, T/C (second compound 0.3 µM, first compound 0.1 µM) of 111% and a viability, T/C (second compound 0.949 µM, first compound 0.000316 µM) of 111%. For the same molecule, the viability, T/C (second compound 0.949 µM, first compound 0.001 µM) was 124%, the viability, T/C (second compound 0.949 µM, first compound 0.00316 µM) was 121% and the viability, T/C (second compound 0.949 µM, first compound 0.01 µM) was 100%. The viability, T/C (second compound 0.949 µM, first compound 0.0316 µM) was 107%, the viability, T/C (second compound 0.949 µM, first compound 0.1 µM) was 114% and the viability, T/C (second compound 3 µM, first compound 0.000316 µM) was 96.8%. For the same molecule, the viability, T/C (second compound 3 µM, first compound 0.001 µM) was 98.5%, the viability, T/C (second compound 3 µM, first compound 0.00316 µM) was 103% and the viability, T/C (second compound 3 µM, first compound 0.01 µM) was 98.6%. It also gave a viability, T/C (second compound 3 µM, first compound 0.0316 µM) of 94.1% and a viability, T/C (second compound 3 µM, first compound 0.1 µM) of 107%.

In the case of `CCN1CCN(Cc2ccc(Nc3ncc(F)c(-c4cc(F)c5nc(C)n(C(C)C)c5c4)n3)nc2)CC1`, the viability, T/C (compound 0.00316 µM) is reported as 105% and 98.4% and 99.2%, the viability, T/C (compound 0.01 µM) is reported as 111% and 104% and 97.7% and the viability, T/C (compound 0.0316 µM) is reported as 89.4% and 96.5% and 95.8%. The viability, T/C (compound 0.1 µM) was 92% and 89.7% and 89.2%, the viability, T/C (compound 0.316 µM) was 93.1% and 92.7% and 81.8% and the viability, T/C (compound 1 µM) was 84.8% and 84.4% and 70.8%. For the same molecule, the IC50 (curve of compound) was over 1 µM.

With `C=CC(=O)N1CCN(c2nc(=O)n(-c3c(C)ccnc3C(C)C)c3nc(-c4c(O)cccc4F)c(F)cc23)C(C)C1` (centres undefined) + CNC(C)C(=O)NC1CN(S(=O)(=O)c2cccc(S(=O)(=O)N3CCC4CCC(C(=O)NC(c5ccccc5)c5ccccc5)N4C(=O)C(NC(=O)C(C)NC)C3)c2)CCC2CCC(C(=O)NC(c3ccccc3)c3ccccc3)N2C1=O the IC50 (curve of first compound, second compound 0.00316 µM) was over 10 µM, the IC50 (curve of first compound, second compound 0.01 µM) was over 10 µM and the IC50 (curve of first compound, second compound 0.0316 µM) was over 10 µM. It also gave an IC50 (curve of first compound, second compound 0.1 µM) of over 10 µM, an IC50 (curve of first compound, second compound 0.316 µM) of over 10 µM and an IC50 (curve of first compound, second compound 1 µM) of over 10 µM. The viability, T/C (second compound 0.00316 µM, first compound 0.0316 µM) was 103%, the viability, T/C (second compound 0.00316 µM, first compound 0.1 µM) was 94.8% and the viability, T/C (second compound 0.00316 µM, first compound 0.316 µM) was 97.2%. It also gave a viability, T/C (second compound 0.00316 µM, first compound 1 µM) of 101%, a viability, T/C (second compound 0.00316 µM, first compound 3.16 µM) of 105% and a viability, T/C (second compound 0.00316 µM, first compound 10 µM) of 102%. The viability, T/C (second compound 0.01 µM, first compound 0.0316 µM) was 110%, the viability, T/C (second compound 0.01 µM, first compound 0.1 µM) was 94.9% and the viability, T/C (second compound 0.01 µM, first compound 0.316 µM) was 95.5%. The viability, T/C (second compound 0.01 µM, first compound 1 µM) was 107%, the viability, T/C (second compound 0.01 µM, first compound 3.16 µM) was 111% and the viability, T/C (second compound 0.01 µM, first compound 10 µM) was 103%. The viability, T/C (second compound 0.0316 µM, first compound 0.0316 µM) was 93.6%, the viability, T/C (second compound 0.0316 µM, first compound 0.1 µM) was 95.3% and the viability, T/C (second compound 0.0316 µM, first compound 0.316 µM) was 89.9%. The viability, T/C (second compound 0.0316 µM, first compound 1 µM) was 99%, the viability, T/C (second compound 0.0316 µM, first compound 3.16 µM) was 95% and the viability, T/C (second compound 0.0316 µM, first compound 10 µM) was 99.6%. It also gave a viability, T/C (second compound 0.1 µM, first compound 0.0316 µM) of 111%, a viability, T/C (second compound 0.1 µM, first compound 0.1 µM) of 105% and a viability, T/C (second compound 0.1 µM, first compound 0.316 µM) of 100%. The viability, T/C (second compound 0.1 µM, first compound 1 µM) was 93.8%, the viability, T/C (second compound 0.1 µM, first compound 3.16 µM) was 104% and the viability, T/C (second compound 0.1 µM, first compound 10 µM) was 91.3%. For the same molecule, the viability, T/C (second compound 0.316 µM, first compound 0.0316 µM) was 105%, the viability, T/C (second compound 0.316 µM, first compound 0.1 µM) was 109% and the viability, T/C (second compound 0.316 µM, first compound 0.316 µM) was 99.9%. It also gave a viability, T/C (second compound 0.316 µM, first compound 1 µM) of 105%, a viability, T/C (second compound 0.316 µM, first compound 3.16 µM) of 94% and a viability, T/C (second compound 0.316 µM, first compound 10 µM) of 103%. The viability, T/C (second compound 1 µM, first compound 0.0316 µM) was 81.9%, the viability, T/C (second compound 1 µM, first compound 0.1 µM) was 78% and the viability, T/C (second compound 1 µM, first compound 0.316 µM) was 85.4%. For the same molecule, the viability, T/C (second compound 1 µM, first compound 1 µM) was 76.3%, the viability, T/C (second compound 1 µM, first compound 3.16 µM) was 101% and the viability, T/C (second compound 1 µM, first compound 10 µM) was 93.6%.
